# Experimental data published in patent US8889370B2, “Method of determining inhibitors of coagulation” (Siemens Healthcare Diagnostics Products GmbH, priority 2010, dated 2014).
# pKi: −log10 of the molar value. Where two headings read alike, the source gives them in different places.
# Molecular target: T1, bovine thrombin (Bos taurus, UniProt P00735)
# T1 construct: a lyophilized thrombin reagent consisting of bovine thrombin; purchased Siemens Healthcare Diagnostics (hirudin activity assay, thrombin reagent)
# Experiment: Determination of the thrombin binding constant (Ki) of peptide aldehyde ligands, chromogenic assay with hirudin activity assay reagents, Dixon plot
# Format: biochemical
# Description: The kinetic data of the peptide aldehyde ligands were determined in chromogenic assay formats by measuring the rate of hydrolysis of chromogenic peptide substrates which compete with the peptide aldehyde ligands for binding to the active site of the particular enzyme, at various substrate concentrations and peptide aldehyde-ligand concentrations. The binding constant (Ki) was determined by a known method (Dixon, M., 1953, Biochem J, 55, 170-171).
# The thrombin binding constant was determined using the reagents of the hirudin activity assay from Siemens Healthcare Diagnostics. The hirudin activity assay comprises a lyophilized thrombin reagent consisting of bovine thrombin, a heparin inhibitor and aprotinin, a lyophilized chromogenic substrate reagent with a concentration of 4 mmol/l tos-Gly-Pro-Arg-ANBA-IPA (tosylglycyl-L-propyl-arginyl-5-amino-2-nitrobenzoyliso-propylamide) after reconstitution. The thrombin reagent was reconstituted in buffer solution (trishydroxymethylamino-methane, NaCl, pH 8.2). Dilutions of the substrate reagent were prepared with deionized water. The peptide aldehyde ligands prepared according to example 1 were dissolved in water and used as sample. The B-r-G-R—H ligand was used in a concentration range from 26.1 to 0.815 μM. The B-f-P—R—H ligand was used in a concentration range from 26.1 to 0 μM. The assays were carried out automatically in a BCS® XP coagulation analyzer (Siemens Healthcare Diagnostics, Marburg, Germany).
# A reaction mix was mixed together as follows:
# 30 μl of sample (peptide aldehyde ligand B-r-G-R—H or B-f-P—R—H),
# 150 μl of thrombin reagent,
# 50 μl of chromogenic substrate reagent (tos-Gly-Pro-Arg-ABNA-IPA).
# The reaction rate in mE/min was determined on the basis of the increase in optical density of the reaction mix at a wavelength of 405 nm. For this, the optical density of the reaction mixes was determined in time intervals of from 15 to 40 seconds for the B-f-P—R—H peptide aldehyde ligand or 5-16 seconds for the B-r-G-R—H peptide aldehyde ligand.
# Reversibly and irreversibly binding ligands can be distinguished by their reaction kinetics. Plotting 1/v, where v is the reaction rate, as a function of the ligand concentration (i) at a constant concentration (S) of a cleavable substrate produces a line. When using two or more different substrate concentrations (S1, S2 . . . SN), said lines intersect at a single point. The x axis value of this point corresponds to −Ki, with Ki corresponding to the binding constant, see, for example, Klebe, G., Wirkstoffdesign, 2nd edition, Spektrum Akademischer Verlag, Heidelberg, Germany, 2009, pages 52-62 and Dixon, M., 1953, Biochem J, 55, 170-171. With an irreversible inhibition, the curves meet at a single point on the x axis, which again corresponds to −Ki.
smiles,measurement,setting,value
"N=C(N)NCCC[C@@H](C=O)NC(=O)[C@@H]1CCCN1C(=O)[C@@H](Cc1ccccc1)NC(=O)CCC(=O)NCCCOCCOCCOCCCNC(=O)CCCC[C@@H]1SC[C@@H]2NC(=O)N[C@@H]21 [B-f-P-R-H, biotinyl-Ttds-D-Phe-Pro-Arg-H]",1/Reaction rate,"CB-f-P-R-H 0.02038 μM, Csubstrate = 0.5 mM, not in the linear region, excluded from regression",1.869 min/E
same,1/Reaction rate,"CB-f-P-R-H 0.02038 μM, Csubstrate = 2 mM",0.4138 min/E
same,1/Reaction rate,"CB-f-P-R-H 0.02038 μM, Csubstrate = 4 mM",0.3846 min/E
same,1/Reaction rate,"CB-f-P-R-H 0.04076 μM, Csubstrate = 0.5 mM, not in the linear region, excluded from regression",1.747 min/E
same,1/Reaction rate,"CB-f-P-R-H 0.04076 μM, Csubstrate = 2 mM",0.4247 min/E
same,1/Reaction rate,"CB-f-P-R-H 0.04076 μM, Csubstrate = 4 mM",0.393 min/E
same,1/Reaction rate,"CB-f-P-R-H 0.08152 μM, Csubstrate = 0.5 mM",1.565 min/E
same,1/Reaction rate,"CB-f-P-R-H 0.08152 μM, Csubstrate = 2 mM",0.4594 min/E
same,1/Reaction rate,"CB-f-P-R-H 0.08152 μM, Csubstrate = 4 mM",0.4143 min/E
same,1/Reaction rate,"CB-f-P-R-H 0.16304 μM, Csubstrate = 0.5 mM",1.711 min/E
same,1/Reaction rate,"CB-f-P-R-H 0.16304 μM, Csubstrate = 2 mM",0.521 min/E
same,1/Reaction rate,"CB-f-P-R-H 0.16304 μM, Csubstrate = 4 mM",0.4395 min/E
same,1/Reaction rate,"CB-f-P-R-H 0.20380 μM, Csubstrate = 0.5 mM",1.638 min/E
same,1/Reaction rate,"CB-f-P-R-H 0.20380 μM, Csubstrate = 2 mM",0.5061 min/E
same,1/Reaction rate,"CB-f-P-R-H 0.20380 μM, Csubstrate = 4 mM",0.4298 min/E
same,1/Reaction rate,"CB-f-P-R-H 0.32609 μM, Csubstrate = 0.5 mM",2.382 min/E
same,1/Reaction rate,"CB-f-P-R-H 0.32609 μM, Csubstrate = 2 mM",0.6613 min/E
same,1/Reaction rate,"CB-f-P-R-H 0.32609 μM, Csubstrate = 4 mM",0.5012 min/E
same,1/Reaction rate,"CB-f-P-R-H 0.40761 μM, Csubstrate = 0.5 mM",2.645 min/E
same,1/Reaction rate,"CB-f-P-R-H 0.40761 μM, Csubstrate = 2 mM",0.7008 min/E
same,1/Reaction rate,"CB-f-P-R-H 0.40761 μM, Csubstrate = 4 mM",0.5334 min/E
same,1/Reaction rate,"CB-f-P-R-H 0.65217 μM, Csubstrate = 0.5 mM",4.162 min/E
same,1/Reaction rate,"CB-f-P-R-H 0.65217 μM, Csubstrate = 2 mM",1.029 min/E
same,1/Reaction rate,"CB-f-P-R-H 0.65217 μM, Csubstrate = 4 mM",0.6737 min/E
same,1/Reaction rate,"CB-f-P-R-H 0.81522 μM, Csubstrate = 0.5 mM",4.775 min/E
same,1/Reaction rate,"CB-f-P-R-H 0.81522 μM, Csubstrate = 2 mM",1.169 min/E
same,1/Reaction rate,"CB-f-P-R-H 0.81522 μM, Csubstrate = 4 mM",0.7274 min/E
same,1/Reaction rate,"CB-f-P-R-H 1.30435 μM, Csubstrate = 0.5 mM",7.175 min/E
same,1/Reaction rate,"CB-f-P-R-H 1.30435 μM, Csubstrate = 2 mM",1.793 min/E
same,1/Reaction rate,"CB-f-P-R-H 1.30435 μM, Csubstrate = 4 mM",0.9974 min/E
same,1/Reaction rate,"CB-f-P-R-H 1.63043 μM, Csubstrate = 0.5 mM",8.491 min/E
same,1/Reaction rate,"CB-f-P-R-H 1.63043 μM, Csubstrate = 2 mM",2.164 min/E
same,1/Reaction rate,"CB-f-P-R-H 1.63043 μM, Csubstrate = 4 mM",1.183 min/E
same,1/Reaction rate,"CB-f-P-R-H 2.60870 μM, Csubstrate = 0.5 mM",13.19 min/E
same,1/Reaction rate,"CB-f-P-R-H 2.60870 μM, Csubstrate = 2 mM",3.37 min/E
same,1/Reaction rate,"CB-f-P-R-H 2.60870 μM, Csubstrate = 4 mM",1.775 min/E
same,1/Reaction rate,"CB-f-P-R-H 3.26087 μM, Csubstrate = 0.5 mM",15.77 min/E
same,1/Reaction rate,"CB-f-P-R-H 3.26087 μM, Csubstrate = 2 mM",4.026 min/E
same,1/Reaction rate,"CB-f-P-R-H 3.26087 μM, Csubstrate = 4 mM",2.13 min/E
same,1/Reaction rate,"CB-f-P-R-H 5.21739 μM, Csubstrate = 0.5 mM",24.76 min/E
same,1/Reaction rate,"CB-f-P-R-H 5.21739 μM, Csubstrate = 2 mM",6.165 min/E
same,1/Reaction rate,"CB-f-P-R-H 5.21739 μM, Csubstrate = 4 mM",3.251 min/E
same,1/Reaction rate,"CB-f-P-R-H 6.52174 μM, Csubstrate = 0.5 mM",32.28 min/E
same,1/Reaction rate,"CB-f-P-R-H 6.52174 μM, Csubstrate = 2 mM",7.856 min/E
same,1/Reaction rate,"CB-f-P-R-H 6.52174 μM, Csubstrate = 4 mM",4.089 min/E
same,1/Reaction rate,"CB-f-P-R-H 9.78261 μM, Csubstrate = 0.5 mM",43.9 min/E
same,1/Reaction rate,"CB-f-P-R-H 9.78261 μM, Csubstrate = 2 mM",11.18 min/E
same,1/Reaction rate,"CB-f-P-R-H 9.78261 μM, Csubstrate = 4 mM",5.843 min/E
same,1/Reaction rate,"CB-f-P-R-H 13.04348 μM, Csubstrate = 0.5 mM",59.12 min/E
same,1/Reaction rate,"CB-f-P-R-H 13.04348 μM, Csubstrate = 2 mM",14.43 min/E
same,1/Reaction rate,"CB-f-P-R-H 13.04348 μM, Csubstrate = 4 mM",7.611 min/E
same,1/Reaction rate,"CB-f-P-R-H 16.30435 μM, Csubstrate = 0.5 mM",74.55 min/E
same,1/Reaction rate,"CB-f-P-R-H 16.30435 μM, Csubstrate = 2 mM",18.09 min/E
same,1/Reaction rate,"CB-f-P-R-H 16.30435 μM, Csubstrate = 4 mM",9.302 min/E
same,1/Reaction rate,"CB-f-P-R-H 26.08696 μM, Csubstrate = 0.5 mM",121.7 min/E
same,1/Reaction rate,"CB-f-P-R-H 26.08696 μM, Csubstrate = 2 mM",28.41 min/E
same,1/Reaction rate,"CB-f-P-R-H 26.08696 μM, Csubstrate = 4 mM",14.59 min/E
same,Intersect of regression curve 1/reaction rate vs ligand concentration,Csubstrate 0.5 mM,0.9175 min/E
same,Slope of regression curve 1/reaction rate vs ligand concentration,Csubstrate 0.5 mM,4.5718 min/E μM
same,Intersect of regression curve 1/reaction rate vs ligand concentration,Csubstrate 2 mM,0.04059 min/E
same,Slope of regression curve 1/reaction rate vs ligand concentration,Csubstrate 2 mM,1.0812 min/E μM
same,Intersect of regression curve 1/reaction rate vs ligand concentration,Csubstrate 4 mM,0.3497 min/E
same,Slope of regression curve 1/reaction rate vs ligand concentration,Csubstrate 4 mM,0.5500 min/E μM
same,pKi,"average of three Ki values, read-out: KiM average thrombin binding constant",6.88
same,pKi,"intersection of regression curves Csubstrate 2 and 0.5 mM, read-out: Ki2&3 thrombin binding constant",6.83
same,pKi,"intersection of regression curves Csubstrate 4 and 0.5 mM, read-out: Ki1&3 thrombin binding constant",6.85
same,pKi,"intersection of regression curves Csubstrate 4 and 2 mM, read-out: Ki1&2 thrombin binding constant",6.97
same,binding of the peptide aldehyde with thrombin (reversible or irreversible),intersections of regression curves not on the x axis,reversible
